Measurements reported in publication PMC3646032 (PLoS ONE, 2013).
Where “and” joins values, the source holds several entries; their conditions need not be identical. Identical values can stand only once.

Tests used:
[1] = system: E. coli SKI (aroK-encoded); conditions: cited from earlier work
[2] = system: E. coli SKII (aroL-encoded); conditions: cited from earlier work
[3] = system: EcSK (SK from Erwinia chrysanthemi); design: method as in PMID 11369852; conditions: cited from earlier work
[4] = 1-COOH, in solution; cited from earlier work
MtSK [5] = target: T1, MtSK (Mycobacterium tuberculosis, UniProt P9WPY3); test: Equilibrium fluorescence spectroscopy, intrinsic tyrosine fluorescence; format: binding; conditions: 25°C, pH 7.6
T1 sequence (P9WPY3 2-176): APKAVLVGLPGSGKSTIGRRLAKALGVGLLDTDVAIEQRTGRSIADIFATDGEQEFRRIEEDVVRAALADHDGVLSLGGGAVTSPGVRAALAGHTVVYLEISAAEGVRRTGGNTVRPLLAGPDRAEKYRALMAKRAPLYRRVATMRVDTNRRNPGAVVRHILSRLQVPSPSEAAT
Protocol: MtSK intrinsic protein fluorescence measurements were carried out to both determine the order of substrate/product addition/dissociation on/from the catalytic site and distinguish the enzyme kinetic mechanism. As MtSK has no tryptophan residues, changes in protein tyrosine fluorescence (the polypeptide chain of MtSK has 3 Tyr residues) upon ligand binding were monitored. Fluorescence measurements were carried out in a RF-5301 PC Spectrofluorophotometer (Shimadzu) at 25°C. Excitation wavelength was 280 nm and emission spectra were collected from 300 to 500 nm. The maximum values of fluorescence intensity at 315 nm values were plotted as a function of increasing ligand concentration. Excitation and emission slits were 5 nm. As protein tyrosine typically has a low sensitivity (low molar absorption coefficient and low fluorescence quantum yield), MtSK concentration for binding experiments was 10 µM. […]
Equilibrium fluorescence spectroscopy data were fitted to Eq. 4, in which F is the observed fluorescence, F 0 is the initial fluorescence, F ∞ is the maximum change in fluorescence at saturating ligand (L) concentration, and K D represents the equilibrium dissociation constant for protein:ligand binary complex formation.

MtSK [6] = target: T1, MtSK; test: biochemical; format: binding; conditions: 298.15 K, Hepes, pH 7.6
[7] = target: M. tuberculosis Shikimate Kinase (MtSK) (Mycobacterium tuberculosis, UniProt P9WPY3); format: biochemical
M. tuberculosis Shikimate Kinase (MtSK), sequence (P9WPY3 2-176): as above

[8] = target: EcSK (aroL-encoded SK from Erwinia chrysanthemi); design: method as in PMID 11369852; conditions: cited from earlier work
MtSK [9] = target: T1, MtSK; conditions: cited from earlier work

O=C(O)C1=C[C@@H](O)[C@@H](O)[C@H](O)C1 [SKH, [3R-(3α,4α,5β)]3,4,5-trihydroxy-1-cyclohexene-1-carboxylic acid]
K SKH [1]: 20×10 ^3 µM
KSKH [1]: 20 mM
K SKH [2]: 200 µM
K SKH [3]: 310 µM
pK a [4]: 4.47

O=C(O)C1=C[C@@H](OP(=O)(O)O)[C@@H](O)[C@H](O)C1 [S3P, shikimate 3-phosphate]
change in intrinsic protein fluorescence upon binding to free MtSK (MtSK [5]): No change in protein fluorescence
binding to free enzyme detected by ITC (MtSK [6]): no binding

Nc1ncnc2c1ncn2[C@@H]1O[C@H](COP(=O)(O)OP(=O)(O)OP(=O)(O)O)[C@@H](O)[C@H]1O [ATP, adenosine 5'-triphosphate]
K MgATP (Michaelis constant) ([7]; pH 7.6): 112 µM and 112 (±4) µM
k cat/KMgATP ([7]; true steady-state, 25°C, pH 7.6): 5.4 (±0.7)×10^5 M^−1 s^−1
-TΔS (MtSK [6]): 0.044 (±0.007) kcal mol^−1
Kd (MtSK [6]): 196 µM
ΔG (MtSK [6]): −5.1 (±0.8) kcal mol^−1
ΔH (MtSK [6]): −5.1 (±0.3) kcal mol^−1
ΔS (MtSK [6]): −0.15 (±0.02) cal mol^−1 K^−1
K MgATP [2]: 160 µM
k cat/KMgATP [2]: 200000 M⁻¹ s⁻¹
K MgATP [3]: 620 µM
k cat/KMgATP [3]: 56000 M⁻¹ s⁻¹
Kd [8]: 2600 µM
K MgATP (MtSK [9]): 83 (±4) µM
k cat/KMgATP (MtSK [9]): 530000 M⁻¹ s⁻¹

Nc1ncnc2c1ncn2[C@@H]1O[C@H](COP(=O)(O)OP(=O)(O)O)[C@@H](O)[C@H]1O [ADP, adenosine 5′-diphosphate]
-TΔS (MtSK [6]): 7.9 (±0.2) kcal mol^−1
Kd (MtSK [6]): 562 µM
ΔG (MtSK [6]): −4.4 (±0.2) kcal mol^−1
ΔH (MtSK [6]): −12.4 (±0.2) kcal mol^−1
ΔS (MtSK [6]): −27 (±1) cal mol^−1 K^−1

c1c[nH]cn1 [imidazole]
enzyme inhibition of MtSK activity ([7]; 50 mM imidazole in assay mixture): No enzyme inhibition
enzyme velocity of MtSK ([7]; assay mixture containing 50 mM imidazole (9.2 U mL^−1 in its absence)): 9.5 U mL^−1
